Measured values reported in US5821038A, “Yeast with modified permeability” (priority 1994, dated 1998).
Read-outs that look alike come from different tables or passages of the source. Numbered stars: 1 amine (or outer) side, 2 acyl side, 3 side chain; on linkers, the order of the positions; unused ones are H or OH. Bridge positions count the residues as written; N and C are the ends. Square brackets hold non-standard residues; d marks the D form. Peptide text beside a SMILES is read from it. I, II: the chains in the order shown. Actinocin(9to1) = Cc1c2oc3c(C)ccc(C(=O)[*:1])c3nc-2c(C(=O)[*:2])c(N)c1=O; NMeV = CN[C@H](C(=O)O)C(C)C; Sar = CNCC(=O)O

Columns and labels:
Assay type in all cases: cell-based, Saccharomyces cerevisiae
[1] = system: 5247 (wt); test: Growth inhibition (sensitivity to cytotoxic products) as measure of permeability, wild-type strain (Examples 2 and 4); details: for EC50: Saccharomyces cerevisiae; for RATIO: EC50 relative to wild type 5247, 2880 min
Protocol: (§1) The strain of yeast used is the strain S. cerevisiae 5247 (Marcireau, 1992) of the ura3, trp1, MAT α genotype. This strain is transformed according to the method described by Gietz (Gietz, 1992).
(§2) The permeability of the yeasts obtained in Example 1 is determined by measuring the sensitivity to different cytotoxic products. The different yeasts are inoculated at an optical density of 0.05 to 700 nm in YNB minimum medium correctly supplemented with bases and amino acids in the presence of an increasing concentration of xenobiotics. The cultures are placed at 28° C. and at 200 rpm for 48 hours. The optical density at 700 nm is then measured. The EC50 is then determined as the xenobiotic concentration inhibiting the growth of the yeast by half compared with a control without xenobiotic.
(§3) This evaluation was carried out according to the procedure described in Example 2.

[2] = system: yCM30 (Δpdr1); test: Growth inhibition (sensitivity to cytotoxic products) as measure of permeability, strain yCM30; details: for EC50: Saccharomyces cerevisiae; for RATIO: EC50 5247 (wt) / EC50 yCM30, 2880 min
Protocol: (§4) The strain 5247 is transformed as described in 3) with the fragments prepared as described in 2a), 2b), 2c). After elimination of the selectable marker, the strains yCM30 (Δpdr1, ura3, trp1, MAT α), yCM63 (Δerg4, ura3, trp1, MAT α) and yCM65 (Δpdr1, Δerg4, ura3, trp1, MAT α) are obtained.
as §2, §3

[3] = system: yCM65 (Δpdr1, Δerg4); test: Growth inhibition (sensitivity to cytotoxic products) as measure of permeability, strain yCM65; details: for EC50: Saccharomyces cerevisiae; for RATIO: EC50 5247 (wt) / EC50 yCM65, 2880 min
Protocol: as §4, §2

[4] = system: yCM55 (Δerg6); test: Growth inhibition (sensitivity to cytotoxic products) as measure of permeability, strain yCM55; details: for EC50: Saccharomyces cerevisiae; for RATIO: EC50 5247 (wt) / EC50 yCM55, 2880 min
Protocol: as §2
The strain 5247 is transformed by the fragment prepared as described in 1a. After elimination of the selectable marker, the strain yCM55 (Δerg6,ura3, trp1, MAT α) is obtained.
as §3

[5] = system: yCM57 (Δpdr1, Δerg6); test: Growth inhibition (sensitivity to cytotoxic products) as measure of permeability, strain yCM57; details: for RATIO: EC50 5247 (wt) / EC50 yCM57, 2880 min
Protocol: as §2
The strain yCM30 is transformed by the fragment prepared as described in la. After elimination of the selectable marker, the strain yCM57 (Δpdr1, Δerg6, ura3, trp1, MAT α) is obtained.
as §3

[6] = system: 5247 (wt); test: Growth inhibition (sensitivity to cytotoxic products) as measure of permeability, wild-type strain (Example 6)
Protocol: as §1
(§5) The permeability of the yeast strains 5247 and yCM61 is determined by measurement of the sensitivity to different cytotoxic products. The different yeasts are inoculated at an optical density of 0.05 to 700 nm in YNB minimum medium correctly supplemented with bases and amino acids in the presence of an increasing concentration of xenobiotics. The cultures are placed at 28° C. and at 200 rpm for 48 hours. The optical density at 700 nm is then measured. The EC50 is determined as the xenobiotic concentration inhibiting the growth of the yeast by half compared with a control without xenobiotic.

[7] = system: yCM61 (Δpdr1, Δpdr5, Δsnq2, Δerg6); test: Growth inhibition (sensitivity to cytotoxic products) as measure of permeability, strain yCM61 (Example 6)
From the text: The strain yCM30 is transformed by the fragment prepared as described in Example 5 in 1a. After elimination of the selectable marker, the strain yCM45 (Δpdr1, Δpdr5, ura3, trp1, MAT α) is obtained. The strain yCM45 is transformed by the fragment prepared as described in Example 5 in 1b. After elimination of the selectable marker, the strain yCM51 (Δpdr1, Δpdr5, Δsnq2, ura3, trp1, MAT α) is obtained. The strain yCM51 is transformed by the fragment prepared as described in Example 1 in 1a. After elimination of the selectable marker, the strain yCM61 (Δpdr1, Δpdr5, Δsnq2, Δerg6, ura3, trp1, MAT α) is obtained.
as §5

[8] = system: yCM63 (Δerg4); test: Growth inhibition (sensitivity to cytotoxic products) as measure of permeability, strain yCM63; details: for RATIO: EC50 5247 (wt) / EC50 yCM63, 2880 min; for EC50: Saccharomyces cerevisiae, YNB minimum medium, 28° C., 48 hours, OD 700 nm
Protocol: as §4, §2

[9] = EC50 5247 (wt) / EC50 yCM61, 2880 min
[10] = strain 5247 (wt), YNB minimum medium, 28° C., 48 hours, OD 700 nm, read-out: EC50
[11] = strain yCM30 (Δpdr1), YNB minimum medium, 28° C., 48 hours, OD 700 nm, read-out: EC50
[12] = strain yCM65 (Δpdr1, Δerg4), YNB minimum medium, 28° C., 48 hours, OD 700 nm, read-out: EC50
[13] = strain yCM55 (Δerg6), YNB minimum medium, 28° C., 48 hours, OD 700 nm, read-out: EC50
[14] = Saccharomyces cerevisiae, Example 6, strain 5247 (wt), YNB minimum medium, 28° C., 48 hours, OD 700 nm, read-out: EC50
[15] = Saccharomyces cerevisiae, Example 6, strain yCM61 (Δpdr1, Δpdr5, Δsnq2, Δerg6), YNB minimum medium, 28° C., 48 hours, OD 700 nm, read-out: EC50

C[C@@H]1C[C@@H]([C@H](O)CC2CC(=O)NC(=O)C2)C(=O)[C@@H](C)C1 [Cycloheximide]
EC50 ([1]; 48 h): 53 µM | RATIO ([1]; strain 5247 (wt)): 1 | EC50 ([2]; 48 h): 2.5 µM | RATIO ([2]; strain yCM30 (Δpdr1)): 21.2 | EC50 ([3]; 48 h): 0.5 µM | RATIO ([3]; strain yCM65 (Δpdr1, Δerg4)): 106 | EC50 ([4]; 48 h): 2.3 µM | RATIO ([4]; strain yCM55 (Δerg6)): 23 | IC50 ([5]; Saccharomyces cerevisiae, 48 h, read-out: EC50): 0.2 µM | RATIO ([5]; strain yCM57 (Δpdr1, Δerg6)): 265 | EC50 ([6]; Saccharomyces cerevisiae, 48 h): 71 µM | RATIO [7, 9]: 500 | EC50 ([7]; Saccharomyces cerevisiae, 48 h): 0.142 µM

CC[C@@]1(O)C(=O)OCc2c1cc1n(c2=O)Cc2cc3ccccc3nc2-1 [Camptothecin]
EC50 ([6]; Saccharomyces cerevisiae, 48 h): > 574 µM | RATIO [7, 9]: > 100 | EC50 ([7]; Saccharomyces cerevisiae, 48 h): 5.74 µM

Cc1cc(C)nc(NC(=O)NS(=O)(=O)c2ccccc2C(=O)O)n1 [Sulphomethuron]
EC50 ([6]; Example 6, strain 5247 (wt), YNB minimum medium, 28° C., 48 hours, OD 700 nm, read-out: EC50): 6.9 µM | RATIO [7, 9]: > 50 | EC50 ([7]; Example 6, strain yCM61 (Δpdr1, Δpdr5, Δsnq2, Δerg6), YNB minimum medium, 28° C., 48 hours, OD 700 nm, read-out: EC50): < 0.13 µM

Cc1c2oc3c(C)ccc(C(=O)N[C@@H]4C(=O)N[C@H](C(C)C)C(=O)N5CCC[C@H]5C(=O)N(C)CC(=O)N(C)[C@@H](C(C)C)C(=O)O[C@@H]4C)c3nc-2c(C(=O)N[C@@H]2C(=O)N[C@H](C(C)C)C(=O)N3CCC[C@H]3C(=O)N(C)CC(=O)N(C)[C@@H](C(C)C)C(=O)O[C@@H]2C)c(N)c1=O [ACTINOMYCIN D, actinomycin D] (I: T[dV]P[Sar][NMeV] / II: T[dV]P[Sar][NMeV]; ester I:1-I:C, II:1-II:C; linker I:N-II:N via Actinocin(9to1))
EC50 [1, 10]: 23.9 µM | RATIO ([1]; strain 5247 (wt)): 1 | RATIO [8]: 3.7 | EC50 [8]: 6.4 µM | EC50 [2, 11]: 12.7 µM | RATIO ([2]; strain yCM30 (Δpdr1)): 1.9 | EC50 [3, 12]: 5.8 µM | RATIO ([3]; strain yCM65 (Δpdr1, Δerg4)): 4.1 | EC50 [4, 13]: 5.6 µM | RATIO ([4]; strain yCM55 (Δerg6)): 4.3 | IC50 ([5]; Saccharomyces cerevisiae, strain yCM57 (Δpdr1, Δerg6), YNB minimum medium, 28° C., 48 hours, OD 700 nm, read-out: EC50 (the source's name)): 0.75 µM | RATIO ([5]; strain yCM57 (Δpdr1, Δerg6)): 31.9

CO[C@@H]1[C@@H](OC(N)=O)[C@@H](O)[C@H](Oc2ccc3c(O)c(NC(=O)c4ccc(O)c(CC=C(C)C)c4)c(=O)oc3c2C)OC1(C)C [Novobiocin]
EC50 [6, 14]: 245 µM | RATIO [7, 9]: 27 | EC50 [7, 15]: 9 µM

CC[C@H](C)C(=O)O[C@H]1C[C@@H](C)C=C2C=C[C@H](C)[C@H](CC[C@@H]3C[C@@H](O)CC(=O)O3)[C@H]21 [Lovastatin]
EC50 [6, 14]: 143 µM | EC50 [7, 15]: 3.8 µM | RATIO ([7]; s. cerevisiae ycm61, 2880 min): 37

COc1cccc2c1C(=O)c1c(O)c3c(c(O)c1C2=O)C[C@@](O)(C(=O)CO)C[C@@H]3O[C@H]1C[C@H](N)[C@H](O)[C@H](C)O1 [DOXORUBICIN, doxorubicin]
EC50 [1, 10]: 40.5 µM | RATIO ([1]; strain 5247 (wt)): 1 | RATIO [8]: 4.4 | EC50 [8]: 9.2 µM | EC50 [2, 11]: 18.4 µM | RATIO ([2]; strain yCM30 (Δpdr1)): 2.2 | EC50 [3, 12]: 5.15 µM | RATIO ([3]; strain yCM65 (Δpdr1, Δerg4)): 7.8 | EC50 [4, 13]: 12 µM | RATIO ([4]; strain yCM55 (Δerg6)): 3.4 | EC50 ([5]; Saccharomyces cerevisiae, strain yCM57 (Δpdr1, Δerg6), YNB minimum medium, 28° C., 48 hours, OD 700 nm): 1.7 µM | RATIO ([5]; strain yCM57 (Δpdr1, Δerg6)): 23.8
